Laboratory results: US10344024B2, “Compounds as ROR gamma modulators” (Glenmark Pharmaceuticals S.A., priority 2015, dated 2019)

Molecular target: T1, GST-tagged ROR gamma ligand binding domain (LBD) (Homo sapiens, UniProt P51449)
T1 construct: purchased Invitrogen
T1 sequence (P51449 269-508 limits assumed): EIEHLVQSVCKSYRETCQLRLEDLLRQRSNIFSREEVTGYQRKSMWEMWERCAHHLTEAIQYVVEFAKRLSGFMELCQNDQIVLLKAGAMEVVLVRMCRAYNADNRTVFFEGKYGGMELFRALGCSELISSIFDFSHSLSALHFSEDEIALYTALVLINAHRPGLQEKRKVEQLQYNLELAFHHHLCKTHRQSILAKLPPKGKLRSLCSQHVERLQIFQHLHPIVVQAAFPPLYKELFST
Assay: TR-FRET assay for ROR gamma (LanthaScreen co-activator peptide recruitment)
Type: biochemical
Conditions: for inhibition at 1 µM: compound concentration 1 μM; for inhibition at 1 µM / inhibition at 10 µM: TR-FRET ratio 520/495, percent of control; for inhibition at 10 µM: compound concentration 10 μM; for IC50: from dose response curve, nonlinear regression, read-out: IC50 range
Summary of the method: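 Antagonist-mode co-activator recruitment: 10 nM GST-RORγ LBD with compound (4% DMSO final) in 25 mM HEPES pH 7.4, 100 mM NaCl, 5 mM DTT, 0.01% BSA, 1 h at 22° C.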

Compound	inhibition at 1 µM	inhibition at 10 µM	IC50
CCC(F)(F)c1ccc(CC(=O)Nc2ccc(-c3nccnc3-c3ccc(F)cc3F)cc2)cc1 [Example 10, N-(4-(3-(2,4-Difluorophenyl)pyrazin-2-yl)phenyl)-2-(4-(1,1-difluoropropyl)phenyl)acetamide]	78.2%	83%	50 to 100 nM
CC(O)C(F)(F)c1ccc(CC(=O)Nc2ccc(-c3nccnc3N[C@@H](C)c3ccc(Cl)cc3)cc2)cc1 (stereo partly drawn) [Example 72, N-(4-(3-(((S)-1-(4-Chlorophenyl)ethyl)amino)pyrazin-2-yl)phenyl)-2-(4-(1,1-difluoro-2-hydroxypropyl)phenyl)acetamide]	86.9%	93.4%	< 50 nM
CC(O)C(F)(F)c1ccc(CC(=O)Nc2ccc(-c3nccnc3N[C@@H](C)c3ccccc3Cl)c(F)c2)cc1 (stereo partly drawn) [Example 74, N-(4-(3-(((S)-1-(2-Chlorophenyl)ethyl)amino)pyrazin-2-yl)-3-fluorophenyl)-2-(4-(1,1-difluoro-2-hydroxypropyl)phenyl)acetamide]	79.2%	89.9%	50 to 100 nM
CCC(F)(F)c1ccc(CC(=O)Nc2ccc(-c3ncccc3-c3ccccc3Cl)cc2)cc1 [Example 30, N-(4-(3-(2-Chlorophenyl)pyridin-2-yl)phenyl)-2-(4-(1,1-difluoropropyl)phenyl)acetamide]	81.3%	82.5%	< 50 nM
CC(O)C(F)(F)c1ccc(CC(=O)Nc2ccc(-c3nccnc3NCC3CCCCC3)cc2)cc1 (stereo not shown) [Example 71, N-(4-(3-((Cyclohexylmethyl)amino)pyrazin-2-yl)phenyl)-2-(4-(1,1-difluoro-2-hydroxypropyl)phenyl)acetamide]	20.5%	73.7%	
Cc1noc(C)c1CCOc1nccnc1-c1ccc(NC(=O)Cc2ccc(C(F)(F)C(C)O)cc2)cc1 (stereo not shown) [Example 90, 2-(4-(1,1-Difluoro-2-hydroxypropyl)phenyl)-N-(4-(3-(2-(3,5-dimethylisoxazol-4-yl)ethoxy)pyrazin-2-yl)phenyl)acetamide]	90.7%	93.9%	< 50 nM
CC(O)C(F)(F)c1ccc(CC(=O)Nc2ccc(-c3nccnc3-c3ccc(F)cc3)cc2)cc1 (stereo not shown) [Example 8, 2-(4-(1,1-Difluoro-2-hydroxypropyl)phenyl)-N-(4-(3-(4-fluorophenyl)pyrazin-2-yl)phenyl)acetamide]	73.6%	85.3%	100 to 500 nM
COCC(F)(F)c1ccc(CC(=O)Nc2ccc(-c3nccnc3-c3ccc(Cl)cc3)cc2)cc1 [Example 3, N-(4-(3-(4-Chlorophenyl)pyrazin-2-yl)phenyl)-2-(4-(1,1-difluoro-2-methoxyethyl)phenyl)acetamide]	74%	84.8%	50 to 100 nM
CC(O)C(F)(F)c1ccc(CC(=O)Nc2ccc(-c3nccnc3-c3ccc(F)cc3Cl)cc2)cc1 (stereo not shown) [Example 39, N-(4-(3-(2-Chloro-4-fluorophenyl)pyrazin-2-yl)phenyl)-2-(4-(1,1-difluoro-2-hydroxypropyl)phenyl)acetamide]	65.5%	72.8%	
CCC(F)(F)c1ccc(CC(=O)Nc2ccc(-c3nccnc3-c3ccc(C)cc3)cc2)cc1 [Example 13, 2-(4-(1,1-Difluoropropyl)phenyl)-N-(4-(3-(p-tolyl)pyrazin-2-yl)phenyl)acetamide]	82.7%	84.4%	< 50 nM
CCC(F)(F)c1ccc(CC(=O)Nc2ccc(-c3nccnc3-c3ccc(C#N)cc3)cc2)cc1 [Example 16, N-(4-(3-(4-Cyanophenyl)pyrazin-2-yl)phenyl)-2-(4-(1,1-difluoropropyl)phenyl)acetamide]	69.9%	60.5%	
CC(O)C(F)(F)c1ccc(CC(=O)Nc2ccc(-c3nccnc3-c3ccc(Cl)cc3)cc2)cc1 (stereo not shown) [Example 2, N-(4-(3-(4-chlorophenyl)pyrazin-2-yl)phenyl)-2-(4-(1,1-difluoro-2-hydroxypropyl)phenyl)acetamide]	76.1%	82.7%	< 50 nM
CC(O)C(F)(F)c1ccc(CC(=O)Nc2ccc(-c3nccnc3OCC3CCCCC3)cc2)cc1 (stereo not shown) [Example 93, N-(4-(3-(Cyclohexylmethoxy)pyrazin-2-yl)phenyl)-2-(4-(1,1-difluoro-2-hydroxypropyl)phenyl)acetamide]	86.6%	94.1%	100 to 500 nM
CCC(F)(F)c1ccc(CC(=O)Nc2ccc(-c3nccnc3-c3ccc(C)cc3C)cc2)cc1 [Example 47, 2-(4-(1,1-Difluoropropyl)phenyl)-N-(4-(3-(2,4-dimethylphenyl)pyrazin-2-yl)phenyl)acetamide]	82.3%	82.3%	< 50 nM
CCC(F)(F)c1ccc(CC(=O)Nc2ccc(-c3nccnc3-c3ccc(F)cc3Cl)cc2)cc1 [Example 45, N-(4-(3-(2-Chloro-4-fluorophenyl)pyrazin-2-yl)phenyl)-2-(4-(1,1-difluoropropyl)phenyl)acetamide]	81.1%	80.8%	< 50 nM
CC(O)C(F)(F)c1ccc(CC(=O)Nc2ccc(-c3nccnc3O[C@@H](C)c3ccccc3Cl)cc2)cc1 (stereo partly drawn) [Example 86, N-(4-(3-((S)-1-(2-Chlorophenyl)ethoxy)pyrazin-2-yl)phenyl)-2-(4-(1,1-difluoro-2-hydroxypropyl)phenyl)acetamide]	84.5%	86%	50 to 100 nM
CCC(F)(F)c1ccc(CC(=O)Nc2ccc(-c3nccnc3OCc3ccccc3)cc2)cc1 [Example 75, N-(4-(3-(Benzyloxy)pyrazin-2-yl)phenyl)-2-(4-(1,1-difluoropropyl)phenyl)acetamide]	75.7%	84.2%	50 to 100 nM
CCC(F)(F)c1ccc(CC(=O)Nc2ccc(-c3nccnc3N(C)Cc3ccccc3)cc2)cc1 [Example 56, N-(4-(3-(Benzyl(methyl)amino)pyrazin-2-yl)phenyl)-2-(4-(1,1-difluoropropyl)phenyl)acetamide]	73.4%	85.8%	100 to 500 nM
CCC(F)(F)c1ccc(CC(=O)Nc2ccc(-c3nccnc3NCc3ccccc3)cc2)cc1 [Example 57, N-(4-(3-(Benzylamino)pyrazin-2-yl)phenyl)-2-(4-(1,1-difluoropropyl)phenyl)acetamide]	69.4%	85.2%	
CC(O)C(F)(F)c1ccc(CC(=O)Nc2ccc(-c3nccnc3N[C@@H](C)c3ccccc3Cl)cc2)cc1 (stereo partly drawn) [Example 68, N-(4-(3-(((S)-1-(2-Chlorophenyl)ethyl)amino)pyrazin-2-yl)phenyl)-2-(4-(1,1-difluoro-2-hydroxypropyl)phenyl)acetamide]	93.5%	96.9%	< 50 nM
CC(O)C(F)(F)c1ccc(CC(=O)Nc2ccc(-c3nccnc3N[C@@H](C)c3ccccc3Cl)cc2F)cc1 (stereo partly drawn) [Example 73, N-(4-(3-(((S)-1-(2-Chlorophenyl)ethyl)amino)pyrazin-2-yl)-2-fluorophenyl)-2-(4-(1,1-difluoro-2-hydroxypropyl)phenyl)acetamide]	78.5%	89.2%	100 to 500 nM
CCC(F)(F)c1ccc(CC(=O)Nc2ccc(-c3nccnc3N[C@@H](C)c3ccc(F)cc3Cl)cc2)cc1 [Example 70, (S)-N-(4-(3-((1-(2-Chloro-4-fluorophenyl)ethyl)amino)pyrazin-2-yl)phenyl)-2-(4-(1,1-difluoropropyl)phenyl)acetamide]	94.1%	93.8%	< 50 nM
Cc1ccc([C@@H](C)Oc2nccnc2-c2ccc(NC(=O)Cc3ccc(C(F)(F)C(C)O)cc3)cc2)c(C)c1 (stereo partly drawn) [Example 98, 2-(4-(1,1-Difluoro-2-hydroxypropyl)phenyl)-N-(4-(3-((R)-1-(2,4-dimethylphenyl)ethoxy)pyrazin-2-yl)phenyl)acetamide]	89.5%	89%	< 50 nM
CCC(F)(F)c1ccc(CC(=O)Nc2ccc(-c3nccnc3N[C@@H](C)c3ccccc3)cc2)cc1 [Example 61, (S)-2-(4-(1,1-Difluoropropyl)phenyl)-N-(4-(3-((1-phenylethyl)amino)pyrazin-2-yl)phenyl)acetamide]	84.2%	91.4%	50 to 100 nM
CCC(F)(F)c1ccc(CC(=O)Nc2ccc(-n3nc(C)cc3-c3ccc(F)cc3)cc2)cc1 [Example 20, 2-(4-(1,1-Difluoropropyl)phenyl)-N-(4-(5-(4-fluorophenyl)-3-methyl-1H-pyrazol-1-yl)phenyl)acetamide]	65.5%	78%	
CC(O)C(F)(F)c1ccc(CC(=O)Nc2ccc(-c3nccnc3-c3ccc(F)c(F)c3)cc2)cc1 (stereo not shown) [Example 9, 2-(4-(1,1-Difluoro-2-hydroxypropyl)phenyl)-N-(4-(3-(3,4-difluorophenyl)pyrazin-2-yl)phenyl)acetamide]	55.2%	72.1%	> 500 nM
CCC(F)(F)c1ccc(CC(=O)Nc2ccc(-c3nccnc3-c3ccc(Cl)cc3Cl)cc2)cc1 [Example 50, N-(4-(3-(2,4-Dichlorophenyl)pyrazin-2-yl)phenyl)-2-(4-(1,1-difluoropropyl)phenyl)acetamide]	83.2%	83%	< 50 nM
